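Briefly, cells in 96-well plates were exposed to five compound concentrations for 48 h, and endpoints were estimated by linear interpolation. GI50 is the concentration that inhibits growth by half.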 Calls of active or inactive are those of the source. Rule as the data show it: active = GI50 up to about 1.1 µM and inactive = higher.
Assays:
Assay in all cases: inhibition of tumour cell growth, NCI panel, 48 h
[1] = system: SK-MEL-2
[2] = system: NCI-H522
[3] = system: M14
[4] = system: OVCAR-5
[5] = system: LOX IMVI
[6] = system: HT-29
[7] = system: NCI-H226
[8] = system: NCI/ADR-RES
[9] = system: HCT-116
[10] = system: NCI-H23
[11] = system: IGROV-1
[12] = system: HCT-15
[13] = system: SK-MEL-28
[14] = system: HOP-92
[15] = system: SF-539
[16] = system: RPMI-8226
[17] = system: T47D
[18] = system: SNB-75
[19] = system: DLD-1
[20] = system: M19-MEL

Structure (SMILES)	GI50 [1]	GI50 [2]	GI50 [3]	GI50 [4]	GI50 [5]	GI50 [6]	GI50 [7]	GI50 [8]	GI50 [9]	GI50 [10]	GI50 [11]	GI50 [12] [µM]	GI50 [13]	GI50 [14]	GI50 [15]	GI50 [16]	GI50 [17]	GI50 [18]	GI50 [19]	GI50 [20]
Nc1nc(N)c2nn(-c3ccc(C(=O)O)cc3)nc2n1	> 100 µM (inactive)	> 100 µM (inactive)	> 100 µM (inactive)	> 100 µM (inactive)	> 100 µM (inactive)	> 100 µM (inactive)	> 100 µM (inactive)	> 100 µM (inactive)	> 100 µM (inactive)	> 100 µM (inactive)	> 100 µM (inactive)	> 100	> 100 µM (inactive)	> 100 µM (inactive)	> 100 µM (inactive)	> 100 µM (inactive)	> 100 µM (inactive)	> 100 µM (inactive)	–	–
CN1CCOC1(C)c1ccccc1 (configuration not stated)	> 100 µM (inactive)	> 100 µM (inactive)	> 100 µM (inactive)	> 100 µM (inactive)	> 100 µM (inactive)	> 100 µM (inactive)	> 100 µM (inactive)	> 100 µM (inactive)	> 100 µM (inactive)	> 100 µM (inactive)	> 100 µM (inactive)	> 100	> 100 µM (inactive)	> 100 µM (inactive)	> 100 µM (inactive)	> 100 µM (inactive)	> 100 µM (inactive)	> 100 µM (inactive)	–	–
CC1NC(/C(=C/c2ccccc2O)NC(=O)c2ccccc2)OC1=O (configuration not stated)	> 50 µM (inactive)	24.2 µM (inactive)	> 50 µM (inactive)	> 50 µM (inactive)	> 50 µM (inactive)	> 50 µM (inactive)	> 50 µM (inactive)	> 50 µM (inactive)	> 50 µM (inactive)	> 50 µM (inactive)	14 µM (inactive)	34.1	> 50 µM (inactive)	11 µM (inactive)	11.5 µM (inactive)	> 50 µM (inactive)	27.7 µM (inactive)	13.9 µM (inactive)	–	–
Cc1nc2sccn2c1C(=O)NNC(N)=S	> 100 µM (inactive)	> 100 µM (inactive)	–	> 100 µM (inactive)	> 100 µM (inactive)	> 100 µM (inactive)	> 100 µM (inactive)	–	> 100 µM (inactive)	> 100 µM (inactive)	> 100 µM (inactive)	> 100	> 100 µM (inactive)	77.6 µM (inactive)	> 100 µM (inactive)	> 100 µM (inactive)	–	–	> 100 µM (inactive)	–
CCOc1ncnc2ccc(Cl)c(I)c12	53.1 µM (inactive)	> 10 µM (inactive)	75.2 µM (inactive)	> 100 µM (inactive)	49.4 µM (inactive)	> 100 µM (inactive)	–	–	82.2 µM (inactive)	79.1 µM (inactive)	38.7 µM (inactive)	> 100	> 100 µM (inactive)	–	–	29.5 µM (inactive)	–	–	99.1 µM (inactive)	> 100 µM (inactive)
CC(NNC(=O)c1ccncc1)c1ccc(Cl)cc1Cl (configuration not stated)	> 100 µM (inactive)	> 100 µM (inactive)	> 100 µM (inactive)	> 100 µM (inactive)	86.5 µM (inactive)	> 100 µM (inactive)	> 100 µM (inactive)	93.8 µM (inactive)	> 100 µM (inactive)	> 100 µM (inactive)	> 100 µM (inactive)	65.6	> 100 µM (inactive)	70.6 µM (inactive)	> 100 µM (inactive)	77.8 µM (inactive)	51.9 µM (inactive)	> 100 µM (inactive)	–	–
O=C1Nc2ccccc2/C1=C1/Nc2ccccc2/C1=N/OCCO	0.457 µM (active)	> 100 µM (inactive)	2.39 µM (inactive)	> 100 µM (inactive)	0.69 µM (active)	2.44 µM (inactive)	> 100 µM (inactive)	> 100 µM (inactive)	0.481 µM (active)	0.656 µM (active)	0.274 µM (active)	0.433	> 100 µM (inactive)	> 100 µM (inactive)	> 100 µM (inactive)	> 100 µM (inactive)	5.62 µM (inactive)	> 100 µM (inactive)	–	–
COC1OC(COCc2ccc(Cl)cc2)C(OCc2ccc(Cl)cc2)C1O (configuration not stated)	16.3 µM (inactive)	12.8 µM (inactive)	16.1 µM (inactive)	16.1 µM (inactive)	16.9 µM (inactive)	17.9 µM (inactive)	–	–	–	15.8 µM (inactive)	22.8 µM (inactive)	16	16.9 µM (inactive)	11.2 µM (inactive)	16.3 µM (inactive)	23.9 µM (inactive)	–	17.5 µM (inactive)	16.2 µM (inactive)	19.2 µM (inactive)
CCn1c(=N)sc2nc3ccccc3n2c1=O	> 100 µM (inactive)	> 100 µM (inactive)	> 100 µM (inactive)	> 100 µM (inactive)	> 100 µM (inactive)	> 100 µM (inactive)	> 100 µM (inactive)	> 100 µM (inactive)	> 100 µM (inactive)	> 100 µM (inactive)	> 100 µM (inactive)	> 100	> 100 µM (inactive)	> 100 µM (inactive)	> 100 µM (inactive)	> 100 µM (inactive)	> 100 µM (inactive)	40 µM (inactive)	–	–
CCN(CC)CCCNc1nc(=O)[nH]c(C)c1C(=O)Nc1ccc2c(c1)c1ccccc1n2CC	> 100 µM (inactive)	> 100 µM (inactive)	> 100 µM (inactive)	> 100 µM (inactive)	> 100 µM (inactive)	> 100 µM (inactive)	> 100 µM (inactive)	> 100 µM (inactive)	> 100 µM (inactive)	> 100 µM (inactive)	> 100 µM (inactive)	> 100	> 100 µM (inactive)	> 100 µM (inactive)	> 100 µM (inactive)	> 100 µM (inactive)	> 100 µM (inactive)	> 100 µM (inactive)	–	–
O=C(NCCOC(=O)OCCNC(=O)NC1CCCCC1)NC1CCCCC1	> 100 µM (inactive)	> 100 µM (inactive)	> 100 µM (inactive)	> 100 µM (inactive)	> 100 µM (inactive)	> 100 µM (inactive)	> 100 µM (inactive)	> 100 µM (inactive)	> 100 µM (inactive)	80.2 µM (inactive)	> 100 µM (inactive)	> 100	> 100 µM (inactive)	27.1 µM (inactive)	44.3 µM (inactive)	> 100 µM (inactive)	> 100 µM (inactive)	0.26 µM (active)	–	–
O=C(CC(=O)C(F)(F)F)c1csc2ccccc12	22 µM (inactive)	23.9 µM (inactive)	23.6 µM (inactive)	53 µM (inactive)	25 µM (inactive)	–	–	–	34 µM (inactive)	29.4 µM (inactive)	23.7 µM (inactive)	29.2	14.1 µM (inactive)	–	31.6 µM (inactive)	24.8 µM (inactive)	–	–	–	32.8 µM (inactive)
CN(C)c1nc2n(CCO)c(-c3ccccc3)c(-c3ccccc3)nc-2c(=O)n1	> 100 µM (inactive)	> 100 µM (inactive)	> 100 µM (inactive)	> 100 µM (inactive)	> 100 µM (inactive)	> 100 µM (inactive)	> 100 µM (inactive)	> 100 µM (inactive)	> 100 µM (inactive)	> 100 µM (inactive)	> 100 µM (inactive)	> 100	> 100 µM (inactive)	> 100 µM (inactive)	> 100 µM (inactive)	> 100 µM (inactive)	> 100 µM (inactive)	21.7 µM (inactive)	–	–
O=c1oc2c3ccc4ccccc4c3n(CCN3CCOCC3)c2c2ccccc12	–	2.48 µM (inactive)	58.5 µM (inactive)	–	4.06 µM (inactive)	27.4 µM (inactive)	–	–	> 100 µM (inactive)	–	> 100 µM (inactive)	–	> 100 µM (inactive)	> 100 µM (inactive)	3.76 µM (inactive)	46.5 µM (inactive)	–	6.08 µM (inactive)	> 100 µM (inactive)	3.76 µM (inactive)
COc1ccc(/N=N/c2c(-c3ccccc3)nn(C(=O)CC(=O)Nc3ccccc3Cl)c2-c2ccccc2)cc1	–	> 100 µM (inactive)	> 100 µM (inactive)	97.5 µM (inactive)	> 100 µM (inactive)	47.1 µM (inactive)	> 100 µM (inactive)	–	> 100 µM (inactive)	> 100 µM (inactive)	> 100 µM (inactive)	58.9	> 100 µM (inactive)	20.6 µM (inactive)	> 100 µM (inactive)	–	–	6.12 µM (inactive)	> 100 µM (inactive)	> 100 µM (inactive)
O=C1Nc2nc3ccccc3n2N=C2CCCC12 (configuration not stated)	> 100 µM (inactive)	–	> 100 µM (inactive)	> 100 µM (inactive)	> 100 µM (inactive)	> 100 µM (inactive)	–	–	> 100 µM (inactive)	> 100 µM (inactive)	> 100 µM (inactive)	> 100	> 100 µM (inactive)	–	> 100 µM (inactive)	> 100 µM (inactive)	–	> 100 µM (inactive)	> 100 µM (inactive)	> 100 µM (inactive)
O=[N+]([O-])c1cc(-c2nnc(C34CC5CC(CC(C5)C3)C4)o2)cc([N+](=O)[O-])c1	63.4 µM (inactive)	> 100 µM (inactive)	21.5 µM (inactive)	> 100 µM (inactive)	> 100 µM (inactive)	6.41 µM (inactive)	83.4 µM (inactive)	> 100 µM (inactive)	12.3 µM (inactive)	> 100 µM (inactive)	> 100 µM (inactive)	21.1	86.1 µM (inactive)	36.1 µM (inactive)	> 100 µM (inactive)	82.2 µM (inactive)	> 100 µM (inactive)	74.6 µM (inactive)	–	–

— ChEMBL document CHEMBL1201862, “PubChem BioAssay data set” (2004)
